Results published in the RepoRT retention time repository (doi:10.1016/j.chroma.2019.01.023).

Key:
Conditions in all cases: stereoisomer not certain
[1] = HILIC, Merck SeQuant ZIC-pHILIC, 150 × 2.1 mm, 5 µm, 40 °C, 0.3 mL/min, estimated dead time 1.1 min; A: acetonitrile; B: water + 2.8 mM ammonium formate, pH 9; gradient (min/%B) 0/5 1/5 10/51 13/51 13.1/5 20/5
[2] = RP, Phenomenex Kinetex C18, 150 × 2.1 mm, 1.7 µm, 30 °C, 0.3 mL/min, estimated dead time 1.1 min; A: water + 0.1% formic acid, pH 3; B: acetonitrile + 0.1% formic acid, pH 3; gradient (min/%B) 0/2 14/100 17/100 17.1/2 25/2
[3] = as above; remark: listed apart in the source
[4] = HILIC, Waters ACQUITY UPLC BEH Amide, 150 × 2.1 mm, 1.7 µm, 40 °C, 0.5 mL/min, estimated dead time 0.66 min; A: 5% water + 95% acetonitrile; B: 70% water + 30% acetonitrile + 10 mM ammonium formate, pH 6.5; gradient (min/%B) 0/0 2/0 20/70 23/70 24/0 31/0

SMILES | LC retention time [1] | LC retention time [2] | LC retention time [3] | LC retention time [4]
Nc1nc2nc[nH]c2c(=O)[nH]1 [GUANINE] | 7.4 min | 1.64 min | 1.44 min | 6.4 min
Nc1ncnc2c1ncn2C1CC(O)C(CO)O1 (centres undefined) [DEOXYADENOSINE] | 5.19 min | 2.54 min | 2.8 min | 2.91 min
Nc1cc([O-])cc(C(=O)O)c1 [3-AMINO-5-HYDROXYBENZOATE] | 8.3 min | 1.62 min | 1.75 min | 2.31 min
CSCCC(NC(C)=O)C(=O)O (centres undefined) [N-ACETYLMETHIONINE] | 4.9 min | 4.1 min | 4.22 min | 3.31 min
O=C(O)CCCCC1SCC2NC(=O)NC21 (centres undefined) [BIOTIN] | 5.57 min | 4.77 min | 4.98 min | 5.11 min
CC(CCC(=O)O)C1CCC2C3C(O)CC4CC(O)CCC4(C)C3CCC12C (centres undefined) [CHENODEOXYCHOLATE] | – | 10.7 min | 10.8 min | 1 min
CC12CCC(=O)C=C1CCC1C2C(=O)CC2(C)C1CCC2(O)C(=O)CO (centres undefined) [CORTISONE] | – | 7.16 min | 7.28 min | 0.86 min
CC(=O)OCC(=O)C1(O)CCC2C3CCC4=CC(=O)CCC4(C)C3C(O)CC21C (centres undefined) [CORTISOL 21-ACETATE] | – | 8.62 min | 8.68 min | 0.83 min
CC12CCC(=O)C=C1CCC1C2C(O)CC2(C)C(C(=O)CO)CCC12 (centres undefined) [CORTICOSTERONE] | – | 8.03 min | 8.14 min | 0.85 min
CC1NCCc2cc(O)c(O)cc21 (centres undefined) [SALSOLINOL] | – | 1.95 min | 2.16 min | 8.1 min
O=C(O)c1cc(=O)c2cccc(O)c2[nH]1 [XANTHURENATE] | 6.93 min | 4.05 min | 4.12 min | –
CC12CCC(=O)C=C1CCC1C2CCC2(C)C1CCC2(O)C(=O)CO (centres undefined) [CORTEXOLONE] | – | 8.32 min | 8.31 min | 0.83 min
CC(=O)N1CCCC1C(=O)O (centres undefined) [N-ACETYLPROLINE] | 6.05 min | 3.39 min | 3.52 min | –
Cc1ncc(CO)c(C(=O)O)c1O [4-PYRIDOXATE] | 1.69 min | 2.73 min | 2.83 min | –
Nc1nc2c(ncn2C2OC3COP(=O)(O)OC3C2O)c(=O)[nH]1 (centres undefined) [CYCLIC GMP] | 8.22 min | 2.64 min | 2.8 min | –
CC(O)(CC(=O)O)CC(=O)O [3-HYDROXYMETHYLGLUTARATE] | 8.15 min | 2.24 min | 2.36 min | –
O=C(O)C=Cc1ccc(O)cc1 [4-COUMARATE] | 5.24 min | 5.47 min | 5.65 min | –
N[C@@H](Cc1ccc(O)c(O)c1)C(=O)O [L-DOPA] | 9.15 min | 1.57 min | 1.63 min | –
CC(O)C(O)C1=Nc2c(nc(N)[nH]c2=O)NC1 (centres undefined) [DIHYDROBIOPTERIN] | 5.52 min | 4.09 min | 2.14 min | –
CC(CCC(=O)NCCS(=O)(=O)O)C1CCC2C3CCC4CC(O)CCC4(C)C3CCC12C (centres undefined) [LITHOCHOLYLTAURINE] | – | 9.54 min | 9.43 min | 1.01 min
O=C(O)c1cccnc1C(=O)O [QUINOLINATE] | 1.76 min | 1.47 min | 1.5 min | –
CC(=O)c1ccc(O)cc1O [2',4'-DIHYDROXYACETOPHENONE] | – | 6.35 min | 6.45 min | 0.96 min
O=C(O)c1ccc([O-])c(O)c1 [3,4-DIHYDROXYBENZOATE] | 8.04 min | 3.77 min | 3.88 min | –
